Here are results for eight substances from PMC9101373, “Design of DNA Intercalators Based on 4-Carboranyl-1,8-Naphthalimides: Investigation of Their DNA-Binding Ability and Anticancer Activity” (International Journal of Molecular Sciences, 2022).

Assay [1] has as its system HepG2 cells. Briefly: Cell cycle analysis by flow cytometry (PI staining). The class given is cell-based, human. The settings on record: HepG2, 24 h at IC50; for cells in G2M phase: control 11.5%. As to the method: To reveal the mechanism underlying the inhibitory effect of the obtained compounds on cellular viability, we examined cell cycle regulation. For this purpose, HepG2 cells were exposed to compounds 54–61 (54 (5.5 µM), 55 (3.4 µM), 56 (12 µM), 57 (3.1 µM), 58 (3.9 µM), 59 (5.4 µM), 60 (31 µM), and 61 (4.8 µM)). The chosen concentration of each of these compounds corresponded to their total IC50 value.
After exposure, HepG2 cells were examined by flow cytometry, and their DNA content was measured by PI staining. […] Compounds 54–59 caused arrest in the G1/G0 phase since we observed a higher number of cells in that phase as compared to control (Figure 4 and Figure S297, ESI). […] Compounds 60 and 61 arrested cell cycle in the G2M phase, where the accumulation of cells was observed (>18% vs. 11.5% in control cells) (Figure 4 and Figure S297, ESI). In comparison, mitonafide and pinafide induced cell cycle arrest at the S and G2M phases, respectively. […] In contrast, 1,8-naphthalimide products with carborane modification at position 3 caused cell cycle arrest at the G2M phase, similar to pinafide and compounds 60 and 61 from this study.
HepG2 (5 × 10^5) cells were seeded onto 6-well cell culture plates and incubated for 24 h in a fully supplemented EMEM medium (Corning®) with addition of the analyzed compounds at a concentration corresponding to their total IC50 values. DNA content was determined by flow cytometry with PI (Sigma-Aldrich, Steinheim, Germany) staining. After incubation, the cells were trypsinized and washed twice with PBS (1 mL). In the next step, the cells were fixed with an ice-cold 80% ethanol. After 1 h incubation at 4 °C, the cells were stored at −20 °C for further analysis. After double wash with PBS, the fixed cells were stained with PI (50 μg/mL) with RNAse A (100 μg/mL) for 30 min at 37 °C in the dark. PI fluorescence was measured by FACSCalibur (Becton Dickinson), and data were analyzed by FlowJo software. […]
Background: Flow cytometry measures light scatter and fluorescence of single cells or particles in a stream.

Assay [2] concerns HepG2 cells. Kind of assay: Apoptosis/necrosis assay by flow cytometry (Annexin V). The settings on record: HepG2, 24 h at total IC50, Annexin V. It counts as cell-based, human. The protocol:
To investigate whether compounds 54–61 induced apoptosis in HepG2 cells, we incubated the cells with these compounds for 24 h and performed a flow cytometry analysis. The concentration chosen for each compound corresponded to their total IC50 values. After incubation, the cells were stained with Annexin V Alexa Fluor 647 conjugate, which enabled detection of the externalization of phosphatidylserine, one of the earliest indicators of apoptosis. To eliminate the influence of the solvent (DMSO), we also analyzed its ability to induce apoptosis in a volume that corresponded to the highest concentration. […] The other compounds, 57, 58, 59, and 61, could not induce as high apoptosis as those mentioned above. Approximately one-third of cells targeted apoptotic pathways (33.4%, 39.1%, 23.1%, and 37.1%, respectively) when treated with these compounds (Figure 6).
HepG2 cells (3.85 × 10^5) were seeded onto 6-well plates, cultured in supplemented EMEM medium (Corning®) at 37 °C and 5% CO2 saturation, and incubated until 70–80% cell confluency was achieved. Subsequently, the cells were treated for 24 h, with the tested compounds 54–61 were added at a concentration corresponding to their total IC50 values. Next, the cells were detached with trypsin (Corning®) and washed twice with DPBS (1 mL) (Thermo Fisher Scientific, Waltham, MA, USA). In the meantime, annexin-binding buffer (10 mM HEPES, 140 mM NaCl, and 2.5 mM CaCl2, pH 7.4) was prepared. The cells were resuspended in annexin-binding buffer (100 μL per assay) and stained with Alexa Fluor™ 680 annexin V conjugate (ex/em: ~679/702 nm, Thermo Fisher Scientific, Waltham, MA, USA) according to the manufacturer’s protocol (5 μL of the annexin V conjugate was added to each 100 μL of cell suspension) and incubated for 15 min at RT, in the dark. After the incubation period, annexin-binding buffer (400 μL) was added, mixed gently, and the samples were kept on ice during the analysis. The cells were analyzed immediately after staining with […] by Accuri C6 flow cytometer (Becton Dickinson, Franklin Lake, NJ, USA) with excitation at 635 nm. The rate of apoptosis was evaluated immediately by FlowJo software.
Figure 6 Effect of compounds 54 (5.5 µM), 55 (3.4 µM), 56 (12 µM), 57 (3.1 µM), 58 (3.9 µM), 59 (5.4 µM), 60 (31 µM), and 61 (4.8 µM) on cell death in HepG2 cells. The cells were incubated with the tested compounds for 24 h at the concentration corresponding to the total IC50 values. Quantitative flow cytometry analysis was performed to evaluate apoptosis/necrosis induced by compounds after 24 h of treatment. Data are presented as the mean ± SD of three independent experiments. Statistical significance is indicated with asterisks: (ns) p > 0.05, (**) p < 0.01, (***) p < 0.001, and (****) p < 0.0001.

Some results are limits rather than exact numbers.

“N-[2-N-Pyrrolidinyl)ethyl]-4-[(6-(2-(1,7-dicarba-closo-dodecaborane-1-yl)-ethylamino)hexyl)amino]-1,8-naphthalimide [Compound 61]”: the “cells in G2M phase” value in assay [1] was > 18%. For the same substance, the “apoptosis rate, apoptotic cells” value in assay [2] is on record as 37.1%. “N-[2-(Dimethylamino)ethyl]-4-[(6-(2-(1,7-dicarba-closo-dodecaborane-1-yl)-ethylamino)hexyl)amino]-1,8-naphthalimide [Compound 59]”: the “apoptosis rate, apoptotic cells” value in assay [2] worked out at 23.1%. The same measure, in the same setting: for “N-[2-(Dimethylamino)ethyl]-4-[(2-(2-(1,7-dicarba-closo-dodecaborane-1-yl)-ethylamino)ethyl)amino]-1,8-naphthalimide [Compound 55]” the value was 48.2%. “N-[2-(Dimethylamino)ethyl]-4-[(6-(2-(1,2-dicarba-closo-dodecaborane-1-yl)-ethylamino)hexyl)amino]-1,8-naphthalimide [Compound 58]” registered a G0/G1 cell fraction in assay [1] (control 60.1%) of 70.4%. Besides, in assay [2], the “apoptosis rate, apoptotic cells” value is on record as 39.1%. As to “N-[2-N-Pyrrolidinyl)ethyl]-4-[(6-(2-(1,2-dicarba-closo-dodecaborane-1-yl)-ethylamino)hexyl)amino]-1,8-naphthalimide [Compound 60]”, in assay [1], the “cells in G2M phase” value is reported as > 18%. Further, the “apoptosis rate, apoptotic cells” value in assay [2] came out at 46.9%. As to “N-[2-(Pyrrolidin-1-yl)ethyl]-4-[(2-(2-(1,2-dicarba-closo-dodecaborane-1-yl)-ethylamino)ethyl)amino]-1,8-naphthalimide [Compound 56]”, the “apoptosis rate, apoptotic cells” value in assay [2] was determined as 77.4%. Regarding “N-[2-(Pyrrolidin-1-yl)ethyl]-4-[(2-(2-(1,7-dicarba-closo-dodecaborane-1-yl)-ethylamino)ethyl)amino]-1,8-naphthalimide [Compound 57]”, the “apoptosis rate, apoptotic cells” value in assay [2] was 33.4%. Same read-out and setting: for “N-[2-(Dimethylamino)ethyl]-4-[(2-(2-(1,2-dicarba-closo-dodecaborane-1-yl)-ethylamino)ethyl)amino]-1,8-naphthalimide [Compound 54]” the value was 44.3%.
